Experimental data as given in patent US6569403B1, “Determining effects of external stimuli on the brain using PET” (Miicro, Incorporated, priority 1995, dated 2003).
“Also recorded” adds a separate entry of the source.

Experiments:
Type in all cases: in vivo
healthy human subjects [1] = assay: PET with FDG: cerebral glucose metabolism (CMRglu) under behavioral clamp, drug versus placebo
healthy human subjects [2] = assay: Profile of Mood States (POMS): subjective effects; details: fluoxetine 40 mg oral versus placebo
Description: (§1) Ninety minutes after administration of fluoxetine or placebo, subjects were repositioned in the PET scanner and a visual monitoring task (VMT) was initiated. The task assured a stable behavioral condition at the time of testing. Each subject was asked to press a button with his or her right thumb every time a dim light (50% of trials) was presented on a screen mounted in front of him or her and was asked to ignore every bright light (50%). The lights were presented under computer control at random intervals ranging from 4 to 7 sec. Each subjected completed four blocks of 96 trials each (approximately 10 min per block). Subjects also completed the Profile of Mood States (POMS) before the capsule and 20 min after injection of FDG.

healthy human subjects [3] = assay: visual monitoring task (VMT): reaction time and accuracy
Description: as §1

[4] = ethanol 0.5 g/kg versus placebo (tonic water), FIG. 3
[5] = fluoxetine 40 mg oral versus placebo, voxel t-test images (FIG. 1)

With `CCO` [ethanol] as the compound, how does the “rCMglu in frontal and temporal lobes, basal ganglia and limbic system” value (healthy human subjects [1]; [4]) read?
Its value is “affected”.

What about the “rCMglu in the left hemisphere” value (healthy human subjects [1]; [4]) of the same compound?
Its value is “widespread increase”.

With `CNCCC(Oc1ccc(C(F)(F)F)cc1)c1ccccc1` (stereo not shown) [fluoxetine] as the compound, how does the “relative glucose metabolism in bilateral amygdaloid complex, hippocampal formation and ventral striatum” value (healthy human subjects [1]; [5]) read?
The value was “decreased relative glucose metabolism; also recorded: decrease in CMRglu”.

And the “relative glucose metabolism in right superior parietal lobe (Brodmann area 7)” value (healthy human subjects [1]; [5])?
Its value is “increased relative metabolism; also recorded: increase in metabolism”.

What about the “Average global CMRglu” value (healthy human subjects [1]; fluoxetine 40 mg oral, FDG about 90 min after dosing, four healthy subjects, mean of all slices) of the same compound?
Its value is 8.22±0.86 mg 100 g^1 min^−1.

What about the “Average global CMRglu, fluoxetine scans versus placebo scans” value (healthy human subjects [1]; fluoxetine 40 mg oral, paired two-tailed t-test) of the same compound?
Its value is “not significantly different”.

What about the “subjective effects as measured by the POMS” value (healthy human subjects [2]) of the same compound?
The value was “no differences”.

What about the “accuracy on the VMT (% correct)” value (healthy human subjects [3]; after fluoxetine 40 mg oral) of the same compound?
Its value is 96.4±3.2 % correct.

And the “median reaction time on the VMT” value (healthy human subjects [3]; after fluoxetine 40 mg oral, ± s.d.)?
Its value is 553 ± 64 ms.

And the “effects on reaction time or accuracy on the VMT” value (healthy human subjects [3]; fluoxetine 40 mg oral versus placebo)?
The value was “no systematic effects”.
